In patent US12370175B2, “Glucocorticoid receptor modulators to treat pancreatic cancer” (Corcept Therapeutics, Inc., priority 2016, dated 2025):
Entries after “also recorded” stand apart in the source; their conditions may differ.

Columns and labels:
[1] = test system: Human Pancreatic carcinoma cells (MIA-PaCa-2); assay: MIA-PaCa-2 xenograft tumor growth in mice, SGRM combined with paclitaxel; type: in vivo, mice (Balbc/c nude); conditions: SGRM 30 mg/kg orally on day prior to and same day as paclitaxel 7.5 mg/kg intravenously Q4D; MIA-PaCa-2 subcutaneous tumors
Description: Human Pancreatic carcinoma cells (MIA-PaCa-2) were purchased from the American Type Cell Collection (ATCC). The cells were grown in Dulbecco's Modified Eagle's Medium (DMEM) containing 10% (v/v) heat inactivated fetal calf serum and 2.5% horse serum at 37° C. Suspensions of the cells were injected subcutaneously into the left flank of 5-6 week old immunocompromised female mice (Balbc/c nude), 3 million cells per mouse. Tumors were allowed to grow until they reach a volume of 100-200 cubic millimeters (mm^3). Mice were then grouped into four groups, ten (10) per group, and treated with compounds or vehicle as follows. Vehicle or paclitaxel was administered intravenously and SGRMs, i.e., CORT25134 and CORT125281, were administered orally. SGRMs were administered in vehicle ((10% dimethyl sulfoxide (DMSO), 0.1% Tween 80 (polyethylene glycol sorbitan monooleate (polysorbate 80)) and 89.9% hydroxypropyl methylcellulose (HPMC) (0.5%)). Group 1 was dosed with the compound vehicle (10% DMSO, 0.1% Tween 80 and 89.9% HPMC (0.5%)) daily. Group 2 was dosed with paclitaxel at 7.5 mg/kg, every four days (“Q4D”). Group 3 was dosed with both paclitaxel at 7.5 mg/kg Q4D and CORT125134 at 30 mg/kg on the day prior to and the same day as the day paclitaxel was administered. Group 4 was dosed with both paclitaxel at 7.5 mg/kg Q4D and CORT125281 at 30 mg/kg on the day prior to and the same day as the day paclitaxel was administered.
The longest (L) and shortest (S) diameters of the tumors were measured three times a week with electronic calipers and tumor volume was calculated using the formula […], where a and b are the long and short diameters of the tumor, respectively. The tumor growth data are shown in The FIGURE, in which the mean tumor volume as compared to the mean pre-dosing tumor volume for each group of mice is plotted against the number of days of tumor growth since initiation of the treatment.

[2] = test system: exocrine pancreatic tumor; assay: Treating a patient having pancreatic cancer with SGRM and nab-paclitaxel (Example 3, hypothetical); type: in vivo, human; conditions: 200 mg once a day for eight weeks with nab-paclitaxel 80 mg per square meter on days 1, 8, 15 of 28-day cycle; end of the treatment period
Description: A typical pancreatic patient may complain of upper abdomen pain that typically radiates to the back. Such a patient may experience loss of appetite, nausea and vomiting episodes, and may suffer significant weight loss. A CT scan may show the presence of a tumor in the pancreas. The presence of an exocrine pancreatic tumor may be confirmed by histological analysis. Blood ACTH level may be within the normal range for ACTH. Such a patient may be treated with CORT125134 at a dose of 200 mg once a day for eight weeks in combination with an intravenous infusion of nab-paclitaxel at a dose of 80 mg per square meter of body-surface area as an intravenous infusion over 30 minutes on days 1, 8, and 15 of every 28-day cycle. Tumor load may be monitored using enhanced MRI before, during and after such treatment. Imaging results may indicate that the size of the tumor gradually decreases; such reduction may be more than 50% at the end of the treatment period.

[3] = test system: metastatic adenocarcinoma of the pancreas; assay: Clinical study of CORT125134 with nab-paclitaxel in a patient with advanced pancreatic cancer (Example 4); type: in vivo, human
Description: A patient with a diagnosis of metastatic adenocarcinoma of the pancreas participated in a clinical study evaluating the efficacy of daily administration of 100 mg of the GR antagonist CORT125134 in combination with nab-paclitaxel infusions weekly for three out of four weeks per cycle. A tumor tissue sample obtained during or prior to the patient's previous treatments was found by immunohistochemistry to have high GR expression, with 90 percent of the cells staining for GR and with a large percentage staining with high intensity. Prior to receiving this combined GR antagonist and nab-paclitaxel treatment, the patient had previously received treatment with multiple lines of chemotherapy: gemcitabine monotherapy; eight months of combination chemotherapy treatment with 5-fluorouracil, leucovorin, irinotecan and oxaliplatin (FOLFIRINOX treatment); five months of treatment with gemcitabine combined with nab-paclitaxel; and four months of combination chemotherapy treatment with 5-fluorouracil, leucovorin, and irinotecan hydrochloride (FOLFIRI treatment). These prior treatments were unsuccessful: the patient's cancer progressed despite these prior chemotherapy treatments.
This patient has so far received 8 months (8 cycles) of the combined treatment of daily 100 mg CORT125134 in combination with nab-paclitaxel infusions weekly for three out of four weeks per cycle. […] When scanned again one month later, the tumor volume was still reduced by approximately 40% compared to baseline volume, thus confirming the PR status. […] The patient remains on the treatment, and continues to tolerate the treatment well.

SMILES | tumor growth (mean tumor volume compared to mean pre-dosing tumor volume), combination versus paclitaxel group [1] | tumor growth reduction, comparison among treatment groups [1] | reduction of the size of the tumor (enhanced MRI) [2] | clinical response ([3]; daily 100 mg CORT125134 with nab-paclitaxel infusions weekly three out of four weeks per cycle, 8 months (8 cycles), one patient) | tolerability of the treatment ([3]; daily 100 mg CORT125134 with nab-paclitaxel infusions, 8 months, one patient) | tumor volume reduction compared to baseline volume (CT scans) ([3]; scanned again one month after the third month, daily 100 mg CORT125134 with nab-paclitaxel) | tumor volume reduction compared to baseline (scan) ([3]; seventh month of treatment, daily 100 mg CORT125134 with nab-paclitaxel, one patient) | tumor volume reduction compared to start of study (CT scans) ([3]; third month/cycle of treatment, daily 100 mg CORT125134 with nab-paclitaxel, one patient)
Cn1cc(S(=O)(=O)N2CCC3=Cc4c(cnn4-c4ccc(F)cc4)C[C@]3(C(=O)c3cc(C(F)(F)F)ccn3)C2)cn1 [CORT125134, (R)-(1-(4-fluorophenyl)-6-((1-methyl-1H-pyrazol-4-yl)sulfonyl)-4,4a,5,6,7,8-hexahydro-1H-pyrazolo[3,4-g]isoquinolin-4a-yl)(4-(trifluoromethyl)pyridin-2-yl)methanone] | superior to the paclitaxel group in reducing tumor growth | most significant tumor growth reduction | more than 50% | partial response (PR); also recorded: sustained partial response | tolerated the treatment reasonably well; also recorded: tolerated the treatment with CORT125134 and nab-paclitaxel well | approximately 40% | 40% | approximately 40%
Cn1ncc(S(=O)(=O)N2CC[C@H]3Cc4c(cnn4-c4ccc(F)cc4)C[C@]3(C(=O)c3cc(C(F)(F)F)ccn3)C2)n1 [CORT125281, ((4aR,8aS)-1-(4-fluorophenyl)-6-((2-methyl-2H-1,2,3-triazol-4-yl)sulfonyl)-4,4a,5,6,7,8,8a,9-octahydro-1H-pyrazolo[3,4-g]isoquinolin-4a-yl)(4-(trifluoromethyl)pyridin-2-yl)methanone] | superior to the paclitaxel group in reducing tumor growth | – | – | – | – | – | – | –
